This note sets out measurements from publication PMC7778589, “Photosensitizer-based multimodal PSMA-targeting ligands for intraoperative detection of prostate cancer” (Theranostics, 2021).

Series [1] concerns LS174T-PSMA and LS174T xenografts. Briefly: Biodistribution of 111In-labeled multimodal ligands. In kind it is in vivo, BALB/c nude mice. The settings on record: 0.3 nmol, 2 h p.i. On the procedure: Animal experiments were performed in 8-10 weeks old male BALB/c nude mice (Janvier). Animals were housed in individually ventilated cages (Blue line IVC, 4-5 mice per cage) under nonsterile standard conditions with cage enrichment present and free access to chlorophyll-free animal chow (Sniff GmbH) and water. Mice were subcutaneously inoculated with 3.0 x 10^6 LS174T-PSMA cells in the left flank and 1.5 × 10^6 LS174T cells in the right flank, diluted in 200 μL of complete RPMI 1640 medium. Eleven days after tumor cell inoculation when xenografts were approximately 0.1 cm^3, tracers were injected intravenously via the tail vein. The researchers were not blinded for the experimental groups and tumor-bearing mice were block-randomized into groups based on tumor size. All experiments were approved by the institutional Animal Welfare Committee of the Radboud university medical center and were conducted in accordance to the guidelines of the Revised Dutch Act on Animal Experimentation.
Mice were injected intravenously with 10 MBq ^111In-labeled PSMA ligands (0.3 nmol, molar activity 33.3 MBq/nmol) in PBS/0.5% BSA. Two hours post injection, mice were euthanized by CO2/O2-asphyxation and images were acquired with the IVIS fluorescence imaging system (Xenogen VivoVision IVIS Lumina II, Caliper Life Sciences), using an acquisition time of 10 s. Subsequently, µSPECT/CT images were acquired (U-SPECT II, MILabs) with a 1.0 mm diameter pinhole mouse collimator tube [26]. Mice were scanned for 30 min followed by a CT scan (spatial resolution 160 μm, 65 kV, 615 μA) for anatomical reference. µSPECT/CT scans were reconstructed with MILabs reconstruction software, using an ordered-subset expectation maximization algorithm, energy windows 154 - 188 keV and 220-270 keV, 3 iterations, 16 subsets, voxel size of 0.4 mm. SPECT/CT scans were analyzed and maximum intensity projections (MIPs) were created using the Inveon Research Workplace software version 4.1 (Siemens Preclinical Solutions). NIRF images were analyzed using Living Image software version 4.2 (Caliper Life Sciences). Tissues of interest were dissected, weighed and measured for radioactivity in a gamma-counter as described above. In the fluorescence-guided surgery feasibility study, pre-operative imaging was performed to visualize tumor tissue. After white light resection, NIRF imaging was repeated to assess if any remaining tumor was present.

A short description of series [2]: In vitro serum stability. It counts as in vitro ADME, human. The settings on record: 2 h, 37°C, RP-HPLC. How it is done: (§1) Binding and internalization characteristics of all ligands were compared using LS174T-PSMA and wildtype LS174T cells. Cells were cultured to confluency in 6-wells plates followed by incubation at 37 °C for 2 h in 1 ml binding buffer (RPMI/0.5% BSA) with 50,000 counts per minute (cpm) of ^111In-labeled ligand (0.1-0.25 pmol/well). Nonspecific binding was determined by coincubation with 2-(phosphonomethyl)pentane-1,5-dioic acid (2-PMPA, 21.57 µM). PSMA-specific binding was defined as nonspecific binding subtracted from total binding. To retrieve the membrane-bound fraction, cells were washed with PBS twice and incubated with acid buffer (0.1 M acetic acid, 154 mM NaCl, pH 2.6) for 10 minutes at 0 °C. After incubation, the membrane bound fraction (in acid buffer) was collected, cells were washed, lysed with 0.1 M NaOH and cell lysis (intercellular activity) was collected. Membrane-bound activity and intercellular activity fractions were measured in a gamma-counter (2480 WIZARD^2 Automatic Gamma Counter, PerkinElmer), [25]. Human serum was used to determine the in vitro serum stability of the multimodal ligands (0.8 µg/ml serum, 5 MBq/μg labeling). After incubation for 2 h at 37°C, serum proteins were precipitated by adding a 1:1 (v/v) volume of acetonitrile followed by 5 min of centrifugation at 3220×g. Stability was evaluated by RP-HPLC analysis after 2 h of incubation at 37 °C. […]

Series [3] is described as follows: Lipophilicity, PBS/n-octanol. It counts as physicochemical. Particulars: radiolabeled ligand. How it is done:
Tubes were vortexed vigorously for 1 min and centrifuged for 5 min at 201×g for phase separation. The concentration of radioactivity in a defined volume of each layer was measured in a well-type gamma-counter.

The target of series [4] is T1, PSMA-expressing LS174T cells (LS174T-PSMA) (Homo sapiens, UniProt Q04609).
T1 construct: expressed in transfected cells; host or cells: LS174T colon carcinoma cells (human), stably transfected with pcDNA3.1-hPSMA
T1 sequence (Q04609 whole entry): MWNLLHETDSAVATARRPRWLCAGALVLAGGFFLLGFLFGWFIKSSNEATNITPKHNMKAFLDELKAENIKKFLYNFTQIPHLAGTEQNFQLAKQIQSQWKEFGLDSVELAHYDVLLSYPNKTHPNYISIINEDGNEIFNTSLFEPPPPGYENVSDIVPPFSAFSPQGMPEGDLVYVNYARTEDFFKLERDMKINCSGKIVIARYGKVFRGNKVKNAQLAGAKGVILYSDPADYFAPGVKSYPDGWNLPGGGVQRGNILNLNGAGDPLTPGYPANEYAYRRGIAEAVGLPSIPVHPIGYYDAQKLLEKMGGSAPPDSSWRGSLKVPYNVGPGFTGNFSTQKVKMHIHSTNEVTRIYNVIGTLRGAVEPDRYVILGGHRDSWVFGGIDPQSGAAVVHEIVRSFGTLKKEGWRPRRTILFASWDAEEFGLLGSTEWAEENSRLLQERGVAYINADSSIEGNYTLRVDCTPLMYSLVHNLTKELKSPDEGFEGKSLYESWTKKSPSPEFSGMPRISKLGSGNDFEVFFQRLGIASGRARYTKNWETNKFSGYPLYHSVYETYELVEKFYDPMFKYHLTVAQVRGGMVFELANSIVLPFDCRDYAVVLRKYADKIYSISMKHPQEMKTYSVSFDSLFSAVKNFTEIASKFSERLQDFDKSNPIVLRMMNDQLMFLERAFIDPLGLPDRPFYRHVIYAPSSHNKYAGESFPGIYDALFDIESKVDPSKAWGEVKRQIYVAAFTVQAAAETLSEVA
Briefly: Binding and internalization assay with 111In-labeled ligands. In kind it is cell-based. The settings on record: 2 h 37 °C. How it is done:
Cell lines were purchased from the American Type Culture Collection. LS174T colon carcinoma cells were stably transfected with human PSMA using the plasmid pcDNA3.1-hPSMA and cultured in RPMI 1640 medium supplemented with 2 mM glutamine, 10% FCS, and 0.3 mg/ml G418 at 37 °C in a humidified atmosphere with 5% CO2 [5].
Binding and internalization characteristics of all ligands were compared using LS174T-PSMA and wildtype LS174T cells. Cells were cultured to confluency in 6-wells plates followed by incubation at 37 °C for 2 h in 1 ml binding buffer (RPMI/0.5% BSA) with 50,000 counts per minute (cpm) of ^111In-labeled ligand (0.1-0.25 pmol/well). Nonspecific binding was determined by coincubation with 2-(phosphonomethyl)pentane-1,5-dioic acid (2-PMPA, 21.57 µM). PSMA-specific binding was defined as nonspecific binding subtracted from total binding. To retrieve the membrane-bound fraction, cells were washed with PBS twice and incubated with acid buffer (0.1 M acetic acid, 154 mM NaCl, pH 2.6) for 10 minutes at 0 °C. After incubation, the membrane bound fraction (in acid buffer) was collected, cells were washed, lysed with 0.1 M NaOH and cell lysis (intercellular activity) was collected. Membrane-bound activity and intercellular activity fractions were measured in a gamma-counter (2480 WIZARD^2 Automatic Gamma Counter, PerkinElmer), [25]. Human serum was used to determine the in vitro serum stability of the multimodal ligands (0.8 µg/ml serum, 5 MBq/μg labeling). After incubation for 2 h at 37°C, serum proteins were precipitated by adding a 1:1 (v/v) volume of acetonitrile followed by 5 min of centrifugation at 3220×g. Stability was evaluated by RP-HPLC analysis after 2 h of incubation at 37 °C. […] Experimental details are described in the supplementary materials and methods.

Series [5] has as its target T2, LS174T-PSMA-positive cells (Homo sapiens, UniProt Q04609).
T2 construct: expressed in transfected cells; host or cells: LS174T colon carcinoma cells (human), stably transfected with pcDNA3.1-hPSMA
Briefly: Scatchard analysis (Kd). It counts as binding. The settings on record: on ice 4 h. How it is done:
as §1, with “After incubation, the membrane bound fraction (in acid buffer) was collected, cells were washed, lysed with 0.1 M NaOH and cell lysis (intercellular activity) was collected.” left out, “Human serum was used to determine the in vitro serum stability of the multimodal ligands (0.8 µg/ml serum, 5 MBq/μg labeling). After incubation for 2 h at 37°C, serum proteins were precipitated by adding a 1:1 (v/v) volume of acetonitrile followed by 5 min of centrifugation at 3220×g.” left out
(§2) Scatchard analysis was performed to determine the dissociation constant (Kd) of the N064 ligand. […] Non-specific binding was determined by coincubation with 1 µM PSMA-617. […] Cell lysis was collected from the plate and the cell-associated activity was measured in a γ-counter. […] To determine PSMA antigen density per cell and the Kd of multimodal ligands, data were analyzed by linear regression using GraphPad Prism software. […]

Series [6] has as its target T3, PSMA-expressing LS174T-PSMA cells (Homo sapiens, UniProt Q04609).
T3 construct: expressed in transfected cells; host or cells: LS174T colon carcinoma cells (human), stably transfected with pcDNA3.1-hPSMA
Briefly: Competitive binding assay (IC50). The settings on record: on ice 2 h. How it is done:
as §1, with “After incubation, the membrane bound fraction (in acid buffer) was collected, cells were washed, lysed with 0.1 M NaOH and cell lysis (intercellular activity) was collected.” left out, “Human serum was used to determine the in vitro serum stability of the multimodal ligands (0.8 µg/ml serum, 5 MBq/μg labeling). After incubation for 2 h at 37°C, serum proteins were precipitated by adding a 1:1 (v/v) volume of acetonitrile followed by 5 min of centrifugation at 3220×g.” left out
as §2

T2 sequence (Q04609 whole entry): as above
T3 sequence (Q04609 whole entry): as above

In series [1], `C[Si](C)(CCC[N+](CCCS(=O)(=O)O)(CCCS(=O)(=O)O)CCCS(=O)(=O)O)O[Si-2]123(O[Si](C)(C)CCC[N+](CCCS(=O)(=O)O)(CCCS(=O)(=O)O)CCCS(=O)(=O)O)n4c5c6ccccc6c4N=C4c6cccc(OCCCOC(=O)NCCCCCC(=O)NCCCC[C@H](NC(=O)CCC(C(=O)O)N7CCN(CC(=O)O)CCN(CC(=O)O)CCN(CC(=O)O)CC7)C(=O)NCCOCCOCCOCCOCCC(=O)N[C@H](Cc7ccccc7)C(=O)N[C@@H](CCC(=O)O)C(=O)N[C@@H](CCC(=O)O)C(=O)NCCCCCC(=O)NCCCC[C@H](NC(=O)N[C@@H](CCC(=O)O)C(=O)O)C(=O)O)c6C(=[N+]41)N=c1c4ccccc4c(n12)=NC1=[N+]3C(=N5)c2ccccc21.[Na+].[Na+].[Na+].[Na+]` (stereo partly shown) [N111] showed an Adrenals of 0.9 %ID/g, a Blood of 0.2 %ID/g, a Bone of 0.3 %ID/g and a Bone marrow of 0.3 %ID/g. For the same compound, in series [1], the Duodenum is recorded as 0.2 %ID/g, the Heart is given as 0.3 %ID/g, the Kidney worked out at 59 %ID/g and the Liver turned out to be 0.5 %ID/g. Besides, in series [1], the Lung is reported as 0.4 %ID/g, the Muscle amounted to 0.1 %ID/g, the Pancreas worked out at 0.2 %ID/g and the Prostate turned out to be 0.5 %ID/g. Also, in series [1], the Salivary glands was 0.4 %ID/g, the Spleen is 1.3 %ID/g, the Stomach is 0.3 %ID/g and the “Tumor+ LS174T-PSMA” value is given as 6.5 %ID/g. Also, in series [1], the “Tumor- LS174T” value is 0.4 %ID/g, the Tumor/Blood ratio was determined as 41.1, the Tumor/Kidney ratio is given as 0.2 and the Tumor/Liver ratio was 13.7. Besides, in series [1], the Tumor/Muscle ratio turned out to be 71.9, the Tumor/Negative tumor ratio came to 24.1, the Tumor/Prostate ratio was 17.2 and the Tumor/Salivary gland ratio stood at 21.5. Also, the Tumor/Spleen ratio in series [1] was found to be 5.7. Besides, in series [2], the “Stability in human serum” value was “stable”. This compound also returned a LogD in series [3] of -2.4 ± 0.15. In series [4], the Internalized fraction is 0.9 ± 0.06 and the Membrane bound fraction turned out to be 0.4 ± 0.05.
Compound `O=C(O)CC[C@H](NC(=O)N[C@@H](CCCCNC(=O)[C@H](Cc1ccc2ccccc2c1)NC(=O)[C@H]1CC[C@H](CNC(=O)CN2CCN(CC(=O)O)CCN(CC(=O)O)CCN(CC(=O)O)CC2)CC1)C(=O)O)C(=O)O` [PSMA-617] came in with a Kd in series [5] of 15 ± 1.1 nM. Besides, the IC50 in series [6] was found to be 52.7 nM.
